Where a name gives a salt, the structure may show the parent alone.
Columns and labels:
mexB (PA) strain = assay: Combinational effect with antibacterial agent against Pseudomonas aeruginosa (Test Examples 2 and 4): mexB (PA) strain with LVFX, TC or AZT at 1/4 MIC, EC99; assay type: cell-based; conditions: Table 52, Test Example 2, 16 to 20 hours culture, OD595; for EC99, mexB (PA), AZT: combined with AZT at 1/4 MIC; for EC99, mexB (PA), LVFX: combined with LVFX at 1/4 MIC; for EC99, mexB (PA), TC: combined with TC at 1/4 MIC
How it was run: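 P. aeruginosa mexB (PA) strain, lacking MexCD-OprJ, MexEF-OprN and MexXY and overexpressing MexAB-OprM, grown 16–20 h in CAMHB (10^4–5 CFU/well) with LVFX, TC or AZT at ¼ MIC plus test compound at 0–800 μM. Growth read as OD595; EC99 is the lowest compound concentration giving ≥99% growth inhibition.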

S-3769 strain = assay: Combinational effect with antibacterial agent against Pseudomonas aeruginosa (Test Examples 2 and 4): S-3769 strain with AMK or GM at 1/4 MIC, EC99; assay type: cell-based; conditions: Table 52, Test Example 2, 16 to 20 hours culture, OD595; for EC99, S-3769 strain, AMK: combined with AMK at 1/4 MIC; for EC99, S-3769 strain, GM: combined with GM at 1/4 MIC
How it was run: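 P. aeruginosa S-3769 (clinical isolate, MexY overexpressed) grown 16–20 h in CAMHB, 10^4 to 5 CFU/well, with AMK or GM at ¼ MIC plus test compound 0–800 μM. Growth read as OD595; EC99 is the lowest compound concentration giving ≥99% growth inhibition.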

| SMILES | EC99, mexB (PA), AZT (mexB (PA) strain) | EC99, mexB (PA), LVFX (mexB (PA) strain) | EC99, mexB (PA), TC (mexB (PA) strain) | EC99, S-3769 strain, AMK (S-3769 strain) | EC99, S-3769 strain, GM (S-3769 strain) |
| --- | --- | --- | --- | --- | --- |
| CCOc1cccc(F)c1CN1CCN(C(=O)[C@H](N)C2CCN(CCc3cc(Cl)ccc3C3CC3)CC2)CC1 [Example 78, Hydrobromide of (R)-2-amino-2-(1-(5-chloro-2-cyclopropylphenethyl)piperidin-4-yl)-1-(4-(2-ethoxy-6-fluorobenzyl)piperazin-1-yl)ethan-1-one] | B (25 μM<EC99≤100 μM) | C (100 μM<EC99) | B (25 μM<EC99≤100 μM) | S (EC99≤12.5 μM) | S (EC99≤12.5 μM) |
| CCOc1cccc(F)c1CN1CCN(C(=O)[C@H](N)C2CCN(CCc3c(-c4ccccc4)ccc(Cl)c3F)CC2)CC1 [Example 79, Hydrobromide of (R)-2-amino-2-(1-(2-(4-chloro-3-fluoro-[1,1′-biphenyl]-2-yl)ethyl)piperidin-4-yl)-1-(4-(2-ethoxy-6-fluorobenzyl)piperazin-1-yl)ethan-1-one] | B (25 μM<EC99≤100 μM) | B (25 μM<EC99≤100 μM) | B (25 μM<EC99≤100 μM) | S (EC99≤12.5 μM) | A (12.5 μM<EC99≤25 μM) |
| CCOc1cccc(F)c1CN1CCN(C(=O)[C@H](N)C2CCN(CCc3cc(C)ccc3-c3ccccc3)CC2)CC1 [Example 81, Hydrobromide of (R)-2-amino-1-(4-(2-ethoxy-6-fluorobenzyl)piperazin-1-yl)-2-(1-(2-(4-methyl-[1,1′-biphenyl]-2-yl)ethyl)piperidin-4-yl)ethan-1-one] | B (25 μM<EC99≤100 μM) | B (25 μM<EC99≤100 μM) | B (25 μM<EC99≤100 μM) | S (EC99≤12.5 μM) | S (EC99≤12.5 μM) |
| CCOc1cccc(F)c1CN1CCN(C(=O)[C@H](N)C2CCN(CCc3cc(C(F)(F)F)ccc3-c3ccccc3)CC2)CC1 [Example 83, Hydrobromide of (R)-2-amino-1-(4-(2-ethoxy-6-fluorobenzyl)piperazin-1-yl)-2-(1-(2-(4-(trifuluoromethyl)-[1,1′-biphenyl]-2-yl)ethyl)piperidin-4-yl) ethan-1-one] | B (25 μM<EC99≤100 μM) | B (25 μM<EC99≤100 μM) | B (25 μM<EC99≤100 μM) | B (25 μM<EC99≤100 μM) | B (25 μM<EC99≤100 μM) |
| CCOc1cccc(F)c1CN1CCN(C(=O)[C@H](N)C2CCN(CCc3cc(OC(F)(F)F)ccc3-c3ccccc3Cl)CC2)CC1 [Example 86, Hydrobromide of (R)-2-amino-2-(1-(2-(2′-chloro-4-(trifluoromethoxy)-[1,1′-biphenyl]-2-yl)ethyl)piperidin-4-yl)-1-(4-(2-ethoxy-6-fluorobenzyl)piperazin-1-yl)ethan-1-one] | B (25 μM<EC99≤100 μM) | B (25 μM<EC99≤100 μM) | B (25 μM<EC99≤100 μM) | B (25 μM<EC99≤100 μM) | B (25 μM<EC99≤100 μM) |
| CCOc1cccc(F)c1CN1CCN(C(=O)[C@H](N)C2CCN(CCc3cc(Cl)ccc3C3=CCCNC3)CC2)CC1 [Example 88, Hydrobromide of (R)-2-amino-2-(1-(5-chloro-2-(1,2,5,6-tetrahydropyridin-3-yl)phenethyl)piperidin-4-yl)-1-(4-(2-ethoxy-6-fluorobenzyl)piperazin-1-yl) ethan-1-one] | C (100 μM<EC99) | C (100 μM<EC99) | B (25 μM<EC99≤100 μM) | S (EC99≤12.5 μM) | S (EC99≤12.5 μM) |
| CCOc1cccc(F)c1CN1CCN(C(=O)[C@H](N)C2CCN(CCc3cc(Cl)ccc3-c3ccc(F)cc3Cl)CC2)CC1 [Example 90, Hydrobromide of (R)-2-amino-2-(1-(2-(2′,4-dichloro-4′-fluoro-[1,1′-biphenyl]-2-yl)ethyl)piperidin-4-yl)-1-(4-(2-ethoxy-6-fluorobenzyl)piperazin-1-yl) ethan-1-one] | B (25 μM<EC99≤100 μM) | B (25 μM<EC99≤100 μM) | A (12.5 μM<EC99≤25 μM) | A (12.5 μM<EC99≤25 μM) | B (25 μM<EC99≤100 μM) |
| CCOc1cccc(F)c1CN1CCN(C(=O)[C@H](N)C2CCN(CCc3cc(Cl)ccc3-c3cnccc3Cl)CC2)CC1 [Example 91, Hydrobromide of (R)-2-amino-2-(1-(5-chloro-2-(4-chloropyridin-3-yl)phenethyl)piperidin-4-yl)-1-(4-(2-ethoxy-6-fluorobenzyl)piperazin-1-yl) ethan-1-one] | B (25 μM<EC99≤100 μM) | C (100 μM<EC99) | B (25 μM<EC99≤100 μM) | B (25 μM<EC99≤100 μM) | B (25 μM<EC99≤100 μM) |
| CCOc1cccc(F)c1CN1CCN(C(=O)[C@H](N)C2CCN(CCc3cc(Cl)ccc3-c3cnccc3N)CC2)CC1 [Example 93, (R)-2-amino-2-(1-(2-(4-aminopyridin-3-yl)-5-chlorophenethyl)piperidin-4-yl)-1-(4-(2-ethoxy-6-fluorobenzyl)piperazin-1-yl)ethan-1-one] | S (EC99≤12.5 μM) | S (EC99≤12.5 μM) | S (EC99≤12.5 μM) | B (25 μM<EC99≤100 μM) | B (25 μM<EC99≤100 μM) |
| CCOc1ccc(O)c(F)c1CN1CCN(C(=O)[C@H](N)C2CCN(CCc3ccccc3)CC2)CC1 [Example 94, hydrobromide of (R)-2-amino-1-(4-(6-ethoxy-2-fluoro-3-hydroxybenzyl)piperazin-1-yl)-2-(1-phenethylpiperidin-4-yl)ethan-1-one] | C (100 μM<EC99) | C (100 μM<EC99) | C (100 μM<EC99) | B (25 μM<EC99≤100 μM) | B (25 μM<EC99≤100 μM) |
| CCOc1cccc(F)c1CN1CCN(C(=O)[C@H](N)C2CCN(CCc3cc(Cl)ccc3-c3ccccc3N)CC2)CC1 [Example 97, (R)-2-amino-2-(1-(2-(2′-amino-4-chloro-[1,1′-biphenyl]-2-yl)ethyl)piperidin-4-yl)-1-(4-(2-ethoxy-6-fluorobenzyl)piperazin-1-yl)ethan-1-one] | S (EC99≤12.5 μM) | S (EC99≤12.5 μM) | A (12.5 μM<EC99≤25 μM) | A (12.5 μM<EC99≤25 μM) | S (EC99≤12.5 μM) |
| CCOc1cccc(F)c1CN1CCN(C(=O)[C@H](N)C2CCN(CCc3cc(Cl)ccc3-c3cccc(N)c3)CC2)CC1 [Example 99, Hydrobromide of (R)-2-amino-2-(1-(2-(3′-amino-4-chloro-[1,1′-biphenyl]-2-yl)ethyl)piperidin-4-yl)-1-(4-(2-ethoxy-6-fluorobenzyl)piperazin-1-yl)ethan-1-one] | B (25 μM<EC99≤100 μM) | A (12.5 μM<EC99≤25 μM) | A (12.5 μM<EC99≤25 μM) | S (EC99≤12.5 μM) | S (EC99≤12.5 μM) |
| CCOc1cccc(F)c1CN1CCN(C(=O)[C@H](N)C2CCN(CCc3cc(Cl)ccc3-c3cccc(O)c3)CC2)CC1 [Example 100, (R)-2-amino-2-(1-(2-(4-chloro-3′-hydroxy-[1,1′-biphenyl]-2-yl)ethyl)piperidin-4-yl)-1-(4-(2-ethoxy-6-fluorobenzyl)piperazin-1-yl)ethan-1-one] | A (12.5 μM<EC99≤25 μM) | A (12.5 μM<EC99≤25 μM) | A (12.5 μM<EC99≤25 μM) | S (EC99≤12.5 μM) | S (EC99≤12.5 μM) |
| CCOc1cccc(F)c1CN1CCN(C(=O)[C@H](N)C2CCN(CCc3cc(Cl)ccc3-c3ccsc3)CC2)CC1 [Example 101, Hydrobromide of (R)-2-amino-2-(1-(5-chloro-2-(thiophen-3-yl)phenethyl)piperidin-4-yl)-1-(4-(2-ethoxy-6-fluorobenzyl)piperazin-1-yl)ethan-1-one] | B (25 μM<EC99≤100 μM) | C (100 μM<EC99) | B (25 μM<EC99≤100 μM) | S (EC99≤12.5 μM) | S (EC99≤12.5 μM) |
| CCOc1ccc(O)c(F)c1CN1CCN(C(=O)[C@H](N)C2CCN(CCc3cc(Cl)ccc3-c3ccccc3)CC2)CC1 [Example 104, hydrochloride of (R)-2-amino-2-(1-(2-(4-chloro-[1,1′-biphenyl]-2-yl)ethyl)piperidin-4-yl)-1-(4-(6-ethoxy-2-fluoro-3-hydroxybenzyl)piperazin-1-yl)ethan-1-one] | A (12.5 μM<EC99≤25 μM) | B (25 μM<EC99≤100 μM) | A (12.5 μM<EC99≤25 μM) | S (EC99≤12.5 μM) | S (EC99≤12.5 μM) |

From patent US20250326744A1, “PIPERAZINE DERIVATIVE OR SALT THEREOF, AND PHARMACEUTICAL COMPOSITION” (priority 2022, published 2025)
